Tested on: 266295-075-R-J1-PDC spheroid viability
Assay: Anticancer human tumor 266295-075-R-J1-PDC patient-derived head and neck squamous carcinoma cell line growth inhibition [POLQ]
Conditions: spheroids with HUVEC and MSC; for IC50: curve of first compound; for viability, T/C: stronger effect = lower value
Description: Multicellular complex tumor spheroid response to Polymerase (POL) inhibitors (novobiocin, ART-558, RP6685) in combination with a variety of drugs and investigational agents in selected tumor cell lines
The POL inhibitors (novobiocin, ART-558, and RP6685) were evaluated both individually and in combination with standard of care and investigational anticancer small molecules within a complex spheroid model of solid tumors. . Complex spheroids include a stromal component modeled by human endothelial cells (HUVEC) and fibroblasts modeled by human mesenchymal stem cells (MSCs). The concentration ranges selected for each drug and investigational agent were based upon clinically achievable concentrations if the clinical Cmax of the agent was known.
Compounds. The drugs and investigational agents: novobiocin (NSC847541), ART-558 (NSC835418), RP-6685 (NSC848927), peposertib (NSC802822), ceralasertib (NSC780249), elimusertib (NSC800525), camonsertib (NSC841442), AZD-1390 (NSC803789), olaparib (NSC753686), talazoparib (NSC767125), rucaparib (NSC756644), sotorasib (NSC818433), MRTX-1133 (NSC836407), SN-38 (NSC673596), topotecan (NSC609699), epotoside (NSC141540), doxorubicin (NSC123127), gemcitabine (NSC613327), 5-fluorouracil (NSC19893), paclitaxel (NSC125973), vemurafenib (NSC761431), MSA-2 (NSC828583), SN-011 (NSC837082), adavosertib (NSC754352), prexasertib (NSC758257), carboplatin (NSC241240) and oxaliplatin (NSC266046), were obtained from the National Cancer Institute (NCI) Developmental Therapeutics Program Chemical Repository (21). The FDA-approved anticancer drug set is available from the Developmental Therapeutics Program at https://dtp.cancer.gov/organization/dscb/obtaining/. […] The stock solutions were prepared in dimethyl sulfoxide (DMSO, Sigma-Aldrich, St. Louis, MO, cat. D2650), except for the platinum compounds which were prepared in saline (Quality Biological, Gaithersburg, MD, cat. 114-055-101), at 800-fold the tested concentration and stored at -70 degrees C prior to their use. All drugs and investigational agents were tested over a range starting from a high concentration at or near the clinical Cmax and decreasing in half-log increments. If the clinical Cmax for an agent had not been determined, the highest concentration tested was 10 microM, except for SN-38, which was tested at a high concentration of 1 microM.
Cell Culture. All cells were maintained in an incubator at 37 degrees C and 5% CO2 with 95% humidity. The PDC lines were cultured according to standard operating procedures established by the NCI PDMR (https://pdmr.cancer.gov). Table 3 of the manuscript, lists the cell lines along with the number of the three cell types plated to form the mct-spheroids and media for tumor cell growth. After thawing, all PDC lines, except 997537-175-T-J1-PDC and 415267-285-R-J2-PDC, were cultured in Matrigel-coated flasks prepared with a working solution of 1X Ham's F-12 nutrient mix, without supplementation (Thermo Fisher Scientific, cat. 11765054), 100 U/mL penicillin-streptomycin (Thermo Fisher Scientific, cat. 15140122), and 2.5% Matrigel (Corning Inc., Corning, NY, cat. 354248) for the first three passages. The two PDC lines 997537-175-T-J1-PDC and 415267-285-R-J2-PDC were cultured on uncoated flasks. The 857933-349-R-J2-PDC line was cultured in 6C/Colon 1B media containing advanced DMEM/F-12 (Thermo Fisher Scientific, cat. 12634028), 10 mM HEPES (Thermo Fisher Scientific, cat. 15630080), 1X GlutaMAX supplement (Thermo Fisher Scientific, cat. 35050061), 0.1 mg/mL primocin (InvivoGen, San Diego, CA, cat. ant-pm-2), 10% defined fetal bovine serum, heat inactivated (HyClone Laboratories Inc., Logan, UT, cat. SH30070.03HI), 50% L-WRN conditioned media (ATCC, cat. CRL-3276), 1.25 mM N-Acetyl-L-cysteine (Sigma-Aldrich, cat. A9165), 10 mM nicotinamide (Sigma-Aldrich, cat. N0636), 1X B-27 supplement (Thermo Fisher Scientific, cat. 17504044), 1X N-2 supplement (Thermo Fisher Scientific, cat. […]

[1] = second compound 0.0316 µM, first compound 0.0316 µM
[2] = second compound 0.0316 µM, first compound 0.1 µM
[3] = second compound 0.0316 µM, first compound 0.316 µM
[4] = second compound 0.0316 µM, first compound 1 µM
[5] = second compound 0.0316 µM, first compound 3.16 µM
[6] = second compound 0.0316 µM, first compound 10 µM
[7] = second compound 0.1 µM, first compound 0.0316 µM
[8] = second compound 0.1 µM, first compound 0.1 µM
[9] = second compound 0.1 µM, first compound 0.316 µM
[10] = second compound 0.1 µM, first compound 1 µM
[11] = second compound 0.1 µM, first compound 3.16 µM
[12] = second compound 0.1 µM, first compound 10 µM
[13] = second compound 0.316 µM, first compound 0.0316 µM
[14] = second compound 0.316 µM, first compound 0.1 µM
[15] = second compound 0.316 µM, first compound 0.316 µM
[16] = second compound 0.316 µM, first compound 1 µM
[17] = second compound 0.316 µM, first compound 3.16 µM
[18] = second compound 0.316 µM, first compound 10 µM
[19] = second compound 1 µM, first compound 0.0316 µM
[20] = second compound 1 µM, first compound 0.1 µM
[21] = second compound 1 µM, first compound 0.316 µM
[22] = second compound 1 µM, first compound 1 µM
[23] = second compound 1 µM, first compound 3.16 µM
[24] = second compound 1 µM, first compound 10 µM
[25] = second compound 3.16 µM, first compound 0.0316 µM
[26] = second compound 3.16 µM, first compound 0.1 µM
[27] = second compound 3.16 µM, first compound 0.316 µM
[28] = second compound 3.16 µM, first compound 1 µM
[29] = second compound 3.16 µM, first compound 3.16 µM
[30] = second compound 3.16 µM, first compound 10 µM
[31] = second compound 10 µM, first compound 0.0316 µM
[32] = second compound 10 µM, first compound 0.1 µM
[33] = second compound 10 µM, first compound 0.316 µM
[34] = second compound 10 µM, first compound 1 µM
[35] = second compound 10 µM, first compound 3.16 µM
[36] = second compound 10 µM, first compound 10 µM
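Note: spheroids exposed to compounds for seven days before readout.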

In the case of `CC(C)n1c(=O)n(C)c2cnc3cc(F)c(-c4ccc(OCCCN5CCCCC5)nc4)cc3c21` + COC1C(OC(N)=O)C(O)C(Oc2ccc3c(O)c(NC(=O)c4ccc(O)c(CC=C(C)C)c4)c(=O)oc3c2C)OC1(C)C, the IC50 (second compound 0.0316 µM) is reported as over 10 µM, the IC50 (second compound 0.1 µM) is reported as over 10 µM and the IC50 (second compound 0.316 µM) is reported as over 10 µM. It also gave an IC50 (second compound 1 µM) of over 10 µM, an IC50 (second compound 3.16 µM) of over 10 µM and an IC50 (second compound 10 µM) of over 10 µM. The viability, T/C [1] was 102%, the viability, T/C [2] was 86.7% and the viability, T/C [3] was 97.2%. For the same compound, the viability, T/C [4] was 93.8%, the viability, T/C [5] was 83% and the viability, T/C [6] was 72.2%. It also gave a viability, T/C [7] of 105%, a viability, T/C [8] of 95.5% and a viability, T/C [9] of 90.3%. It also gave a viability, T/C [10] of 96.5%, a viability, T/C [11] of 82.8% and a viability, T/C [12] of 74.5%. For the same compound, the viability, T/C [13] was 103%, the viability, T/C [14] was 114% and the viability, T/C [15] was 90.7%. For the same compound, the viability, T/C [16] was 100%, the viability, T/C [17] was 93.9% and the viability, T/C [18] was 57.2%. The viability, T/C [19] was 121%, the viability, T/C [20] was 99.5% and the viability, T/C [21] was 91.8%. For the same compound, the viability, T/C [22] was 86.3%, the viability, T/C [23] was 74.8% and the viability, T/C [24] was 77.7%. The viability, T/C [25] was 92.8%, the viability, T/C [26] was 85.2% and the viability, T/C [27] was 101%. The viability, T/C [28] was 78.9%, the viability, T/C [29] was 74.9% and the viability, T/C [30] was 66.2%. For the same compound, the viability, T/C [31] was 124%, the viability, T/C [32] was 88.4% and the viability, T/C [33] was 78.3%. It also gave a viability, T/C [34] of 78.5%, a viability, T/C [35] of 83.3% and a viability, T/C [36] of 66.3%.

With `CCc1cc2c(N3CCc4c(cc(Cn5ccnc5)cc4-c4cn(C)nc4C(F)(F)F)C3=O)ccnc2c(OC)n1` + COC1C(OC(N)=O)C(O)C(Oc2ccc3c(O)c(NC(=O)c4ccc(O)c(CC=C(C)C)c4)c(=O)oc3c2C)OC1(C)C the IC50 (second compound 0.0316 µM) was over 10 µM, the IC50 (second compound 0.1 µM) was over 10 µM and the IC50 (second compound 0.316 µM) was over 10 µM. The IC50 (second compound 1 µM) was over 10 µM, the IC50 (second compound 3.16 µM) was over 10 µM and the IC50 (second compound 10 µM) was over 10 µM. For the same compound, the viability, T/C [1] was 88.9%, the viability, T/C [2] was 93% and the viability, T/C [3] was 119%. The viability, T/C [4] was 104%, the viability, T/C [5] was 144% and the viability, T/C [6] was 132%. It also gave a viability, T/C [7] of 117%, a viability, T/C [8] of 96.8% and a viability, T/C [9] of 127%. It also gave a viability, T/C [10] of 107%, a viability, T/C [11] of 114% and a viability, T/C [12] of 132%. For the same compound, the viability, T/C [13] was 94.8%, the viability, T/C [14] was 96.7% and the viability, T/C [15] was 95%. For the same compound, the viability, T/C [16] was 129%, the viability, T/C [17] was 120% and the viability, T/C [18] was 115%. It also gave a viability, T/C [19] of 95.3%, a viability, T/C [20] of 80.9% and a viability, T/C [21] of 94%. For the same compound, the viability, T/C [22] was 102%, the viability, T/C [23] was 129% and the viability, T/C [24] was 127%. The viability, T/C [25] was 100%, the viability, T/C [26] was 101% and the viability, T/C [27] was 104%. The viability, T/C [28] was 117%, the viability, T/C [29] was 159% and the viability, T/C [30] was 146%. The viability, T/C [31] was 90.2%, the viability, T/C [32] was 87.7% and the viability, T/C [33] was 111%. For the same compound, the viability, T/C [34] was 117%, the viability, T/C [35] was 145% and the viability, T/C [36] was 135%.
